Data reported in patent US8618355B2, “Aromatic prenyltransferase from hop” (priority 2008, dated 2013).
Where two headings read alike, the source gives them in different places.

Legend:
HIPT1 [1] = target: T1, HIPT1 (Humulus lupulus, UniProt E5RP65, INS53SN/R152W); format: biochemical; set-up: were designed to amplify the open reading frame (ORF) of the prenlyltransferase gene; N-terminal 6xHis and TEV site from the pFastBacHT C vector (own knowledge of the vector); made in house; host or cells: Spodoptera frugiperda (Sf9) insect cells, baculovirus (Bac-to-Bac); microsomal preparation, not purified; conditions: mean ± SD (n = 3), read-out: Km Substrate
Procedure: (§1) HIPT1 enzyme was assayed with phlorisobutyryphenone (PIBP), phlorisovalerophenone (PIVP) and chalconaringenin. Microsomal preparations from Example 2 were used in a 100 μl enzyme assay containing 100 mM Tris-HCl pH 7.0, 10 mM MgCl2, 0.5 mM aromatic substrate (PIBP, PIVP or chalconaringenin), 0.5 mM dimethylallyldiphosphate (DMAPP) and 20 μl of microsomes from insect cells expressing recombinant HIPT1. The assays were incubated at 30° C. for 120 min, the reactions stopped by addition of 5 μl 6N HCl, the reaction products extracted with 200 μl ethyl acetate and dried. The dried products were resuspended in 100 μl of methanol and analyzed by reversed-phase HPLC (solvent A: 0.1% TFA in water, solvent B: acetonitrile; 0-10 min, 40% B to 50% B; 10-20 min, 50% B to 100% B; flow rate 1 ml/min).

HIPT1 [2] = target: T1, HIPT1; assay: HIPT1 enzyme assay with aromatic substrate and DMAPP, products analysed by HPLC and LC-MS; format: biochemical; set-up: were designed to amplify the open reading frame (ORF) of the prenlyltransferase gene; N-terminal 6xHis and TEV site from the pFastBacHT C vector (own knowledge of the vector); made in house; host or cells: Spodoptera frugiperda (Sf9) insect cells, baculovirus (Bac-to-Bac); microsomal preparation, not purified; conditions: 0.5 mM aromatic substrate, 0.5 mM DMAPP, 30° C., 120 min, pH 7.0
Procedure: as §1
Abbreviations: PIBP is phlorisobutyrophenone, PIVP is phlorisovalerophenone, DMAPP is dimethylallyl diphosphate.

HIPT1 [3] = target: T1, HIPT1; conditions: presence of EDTA
HIPT1 [4] = target: T1, HIPT1; assay: Substrate specificity of HIPT1 prenyltransferase activity (14C-DMAPP, radioHPLC); format: biochemical; set-up: were designed to amplify the open reading frame (ORF) of the prenlyltransferase gene; N-terminal 6xHis and TEV site from the pFastBacHT C vector (own knowledge of the vector); made in house; host or cells: Spodoptera frugiperda (Sf9) insect cells, baculovirus (Bac-to-Bac); microsomal preparation, not purified; conditions: aromatic acceptor substrates
Procedure: Referring to FIG. 9A, prenyltransferase activity of HIPT1 on various substrates was measured using ^14C-DMAPP and thirteen aromatic acceptor substrates. Prenylated products were detected and quantified using radioHPLC. Error bars are SD (n=3). Referring to FIG. 9B, prenyltransferase activity of HIPT1 was measured with different prenyl diphosphate donors and the three major aromatic acceptor substrates, PIBP, PIVP and chalconaringenin. Prenylated products were quantified using HPLC with UV detection. Abbreviations: PIBP, phlorisobutyrophenone, PIVP, phlorisovalerophenone; DMAPP, dimethylallyl diphosphate; IPP, isopentenyl diphosphate; GPP, geranyl diphosphate; GGPP, geranylgeranyl diphosphate. Error bars are SD (n=3).

T1 sequence (E5RP65 other isoform, or with tags, fused parts or gaps INS53SN/R152W): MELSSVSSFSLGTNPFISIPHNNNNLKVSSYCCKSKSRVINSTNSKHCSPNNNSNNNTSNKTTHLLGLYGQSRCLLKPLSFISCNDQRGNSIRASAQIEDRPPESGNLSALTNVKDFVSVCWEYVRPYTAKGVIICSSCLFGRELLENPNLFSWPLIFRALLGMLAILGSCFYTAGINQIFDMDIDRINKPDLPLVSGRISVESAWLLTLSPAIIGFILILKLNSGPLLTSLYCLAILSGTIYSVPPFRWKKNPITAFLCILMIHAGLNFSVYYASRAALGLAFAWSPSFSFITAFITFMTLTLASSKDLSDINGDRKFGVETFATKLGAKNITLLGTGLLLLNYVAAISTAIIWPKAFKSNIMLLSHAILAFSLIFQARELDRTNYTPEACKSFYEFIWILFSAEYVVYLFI

In the case of `O=C(/C=C/c1ccc(O)cc1)c1c(O)cc(O)cc1O` [Chalconaringenin, chalconaringenin], the Km (HIPT1 [1]; acceptor substrate) is reported as 196 ± 24.8 µM and the “Prenylation by HIPT1 (product formed)” value (HIPT1 [2]) is reported as “forming desmethylxanthohumol”.

`CC(C)=CCOP(=O)(O)OP(=O)(O)O` [DMAPP, dimethylallyldiphosphate] was tested, and the Km (HIPT1 [1]; prenyl donor, determined with PIVP as acceptor substrate) was 16.8 ± 2.35 µM.

With `O=C(O)CN(CCN(CC(=O)O)CC(=O)O)CC(=O)O` [EDTA] the “Effect on prenyltransferase activity of HIPT1” value (HIPT1 [3]) was “completely inhibited”.

For `CC(C)C(=O)c1c(O)cc(O)cc1O` [PIBP, phlorisobutyryphenone], the Km (HIPT1 [1]; acceptor substrate) was 10.2 ± 0.55 µM and the “Prenylation by HIPT1 (product formed)” value (HIPT1 [2]) was “forming prenyl PIBP”.

In the case of `CC(C)CC(=O)c1c(O)cc(O)cc1O` [PIVP, phlorisovalerophenone], the Km (HIPT1 [1]; acceptor substrate) is reported as 4.95 ± 0.25 µM and the “Prenylation by HIPT1 (product formed)” value (HIPT1 [2]) is reported as “forming prenyl PIVP”.

`O=C(/C=C/c1ccc(O)cc1)c1ccc(O)cc1O` [isoliquiritigenin] was tested, and the “Acceptance as substrate of HIPT1” value (HIPT1 [4]) was “can accept”.

In the case of `Cc1cc(O)cc(O)c1` [orcinol], the “Acceptance as substrate of HIPT1” value (HIPT1 [4]) is reported as “can accept”.

For `CC(C)=CCc1c(O)cc(O)c(C(=O)C(C)C)c1O` [prenyl-PIBP], the “Acceptance as substrate of HIPT1” value (HIPT1 [4]) was “does prenylate prenyl-PIBP to form diprenyl-PIBP”.

`Oc1ccc(C=Cc2cc(O)cc(O)c2)cc1` [resveratrol] was tested, and the “Acceptance as substrate of HIPT1” value (HIPT1 [4]) was “can accept”.
